Laboratory results published in patent US20250367266A1, “ORAL PHARMACEUTICAL COMPOSITION FOR PREVENTION OR TREATMENT OF OSTEOPOROSIS CONTAINING TERIPARATIDE AND METHOD FOR PREPARATION THEREOF” (ICURE BNP CO., LTD., priority 2022, published 2025).
Read-outs that look alike come from different tables or passages of the source.

Legend:
[1] = system: dexamethasone-induced mouse osteoporosis model; test: Anti-osteoporotic effect, femur micro-CT and histology; type: in vivo, C57BL/6 mice; details: 4 weeks
Method: (§1) To determine the anabolic effect of orally administered TRP/LDA/DA-DM on GC-induced osteoporosis, 9-week-old female C57BL/6 mice were randomly divided into 6 groups (n=10 per group): Control group (normal) (SC injection of normal saline once daily); Control group (DEX) (SC injection of 0.022 mg/kg DEX once daily); TRP-SC (0.02) (SC injection of 0.02 mg/kg TRP dissolved in physiological saline containing 0.022 mg/kg DEX once daily); TRP-oral (0.4) (SC injection of 0.022 mg/kg DEX dissolved in water with 0.4 mg/kg TRP orally once daily); RP (1:5:7)-15 (0.4) (once daily oral administration of TRP (1:5:7)-15 equivalent to 0.4 mg/kg TRP with SC injection of 0.022 mg/kg DEX); and TRP (1:5:7)-15 (0.8) (once daily oral administration of TRP (1:5:7)-15 equivalent to 0.8 mg/kg TRP with SC injection of 0.022 mg/kg DEX). Blood samples were collected for biochemical analysis 4 weeks after treatment.
In addition, femurs from 10 mice in each group were collected and fixed in 4% paraformaldehyde for bone density and histomorphometric analysis. The trabecular bone microstructure of the left femur was investigated using a Quantum GX micro-computed tomography (micro-CT) imaging system (PerkinElmer, Hopkinton, MA, USA) located at the Korea Institute of Basic Science (Gwangju, Korea). X-ray source settings included a voltage of 90 kV and a current of 88 uA, with a field of view of 10 mm (voxel size, 20 μm; scan time, 4 min). Three-dimensional (3D) images were obtained with 3D Viewer, an existing software in Quantum GX, and the resolution was set to 4.5 μm. After scanning, the structural parameters of the trabecular bone were analyzed using Analyze 12.0 software (Analyze Direct, Overland Park, KS, USA).
For histological observations, formalin-fixed femurs were […] in 10% ethylenediaminetetraacetic acid (EDTA) and dehydrated by passing through a graded ethanol series. Calcified femurs were then embedded in paraffin wax, cut into 5-μm-thick sections, and stained with hematoxylin and eosin (H&E). Histological sections were observed under an optical microscope (Bx41; Olympus, Tokyo, Japan), and photographs were taken focusing on the central portion of the growth plate.

[2] = system: dexamethasone-induced mouse osteoporosis model; test: Serum bone formation and resorption markers and calcium; type: in vivo, C57BL/6 mice
Method: as §1
After the final treatment once daily, serum samples were collected from mouse whole blood by centrifugation at 2000×g for 20 minutes. Then, the serum levels of osteocalcin, procollagen I N-terminal pro-peptide (PINP), and C-terminal cross-linked telopeptide of type I collagen (CTx) in each sample were determined according to the manufacturer's instructions using the Mouse Osteocalcin ELISA kit (LifeSpan BioSciences, Inc., Seattle, WA, USA), Rat/Mouse PINP EIA kit (Immunodiagnostic Systems Holdings Ltd., Tyne & Wear, UK), and RatLaps™ CTx-I EIA (Immunodiagnostic Systems Holdings Ltd.) was used to confirm each. In addition, the serum calcium level was confirmed through a colorimetric assay at 560 nm (Sigma-Aldrich).

[3] = Particle size, PDI and zeta potential (dynamic light scattering) and TEM; type: physicochemical; details: dispersed in deionized water, 25° C.
Method: The characterization of the secondary structure of RP/LDA/DA-DM was confirmed by […] of TRP, TRP-DM, TRP/LDA/DA, and TRP/LDA/DA-DM, using 10 µM of the complex in water at 20° C. Measurements were made in the 180 to 260 nm range on a JASCO spectropolarimeter (Jasco Inc., Easton, MD, USA) using a 10 mm cuvette. All spectra were background-corrected and calculated in units of average residual ellipticity. This represents an average of 10 scan values. The optimized TRP/LDA/DA-DM [i.e., TRP (1:5:7)-15] was also characterized for average particle size, polydispersity index (PDI), and zeta potential using a dynamic light scattering analyzer (Malvern Zetasizer Nano ZS90; Malvern Instruments, Malvern, UK) at 25° C. TRP/LDA/DA-DM was dispersed in deionized water and sonicated for 1 min to minimize multi-scattering effects. In addition, morphological evaluation of the TRP formulation was performed by transmission electron microscopy (TEM). The diluted dispersion was placed on a copper grid, excess fluid was removed using filter paper, and negative staining was performed with a 2% aqueous solution of phosphortungstic acid. The prepared grids were observed by high-resolution TEM (HRTEM; JEM-200; JEOL, Tokyo, Japan).

[4] = Oral absorption: plasma TRP pharmacokinetics; type: in vivo, SD mice; details: SD, mouse; for AUC(0-inf) / AUC(0-t) / Cmax / Tmax / half-life: single dose, n=5
Method: The oral absorption of TRP/LDA/DA-DM in mice was evaluated by determining the effectiveness of electrostatic complexes of TRP with LDA and DA and micellar formulations using DM. After fasting overnight, SD mice were orally administered 400 μL of TRP-Oral (1.6) (1.6 mg/kg TRP dissolved in water) or TRP (1:5:7)-15 (1.6) (equivalent to 1.6 mg/kg TRP). In addition, animals were injected subcutaneously with 200 μL of TRP-SC (0.04) (0.04 mg/kg TRP dissolved in physiological saline) to evaluate the relative oral bioavailability. Blood samples (250 μL) were collected in heparinized tubes (lithium heparin) from a cannulated femoral vein at specified time points (0, 0.167, 0.5, 1, 1.5, 2, 3, 4, 6 hours). Finally, plasma was separated by centrifugation (2500×g, 15 min, 4° C.) and stored at […] until analysis.
The plasma drug concentration of each sample was determined by UPLC-MS/MS. To construct a standard calibration curve, 180 μL of blank plasma was transferred to a tube, and then 10 μL of TRP at concentrations of 100, 50, 25, 10, 5, 2.5, 1, and 0 (blank) ng/ml was added to the blank plasma. To measure plasma drug concentrations after drug administration, 180 μL of mouse plasma samples at different time points were transferred to another tube, and then 10 μL hPTH (1-38) aqueous solution (100 ng/ml) (as an internal standard [IS]) was added to the TRP and blank plasma or drug-administered plasma samples. The samples were then precipitated by adding 200 μL acetonitrile containing 5% ammonium hydroxide. The precipitated sample was further diluted with 1 mL of water and centrifuged at 4° C. for 15 min at 4,000 rpm. The supernatant was extracted using the solid phase extraction (SPE) method and an Oasis® HLB uElution 96-well plate (Waters Corporation, Milford, MA, USA). Briefly, a 96-well plate was conditioned with 200 μL of methanol and then equilibrated with 200 μL of water. Four 350 μL aliquots of the supernatant were then added to each Oasis HLB uElution well. After the addition of standards or samples, the wells were washed with 200 μL of water containing 5% methanol. Then, TRP and IS were eluted with 25 μL of acetonitrile:water:trifluoroethanol:trifluoroacetic acid (60:34:5:1, v/v/v/v) mixture in two sequential aliquots. After further dilution of the eluate with 50 μL of water, 10 μL was injected into a UPLC system (Waters ACQUITY UPLC, Waters Corporation) equipped with an ACQUITY UPLC Peptide BEH C18 column (2.1×50 mm, 1.7 μm, 300 Å, Waters Corporation). The sample was placed at a low temperature of 6° C., and the column temperature was maintained at 60° C. during the analysis. Mobile phase A is composed of 0.5% (v/v) formic acid in water, and mobile phase B is composed of acetonitrile. TRP and IS were eluted at a gradient flow rate of 0.3 mL/min, where mobile phase A was equal to 85% (initial), 85% (0.8 min), 70% (1.2 min), 70% (2.2 min), 65% (2.7 min), 10% (3.0 min), 10% (4.0 min), 85% (5 min), and 85% (5 min). For ionization, a mass spectrometer (Xevo™ TO-S; Waters Corporation) was used in positive ion multiple reaction monitoring mode with electrospray voltage, source temperature, desolvation temperature, and desolvation gas flow rate of 3.0 kV, 150° C., 500° C., and 800 L/h, respectively. Quantification was performed with the transition of m/z 589.40→656.40 at 45 V cone voltage and 13 eV collision energy for TRP and m/z 744.20→855.50 at 20 V cone voltage and 20 eV collision energy for IS.

[5] = SC 0.022 mg/kg DEX once daily, 4 weeks
[6] = SC 0.02 mg/kg TRP once daily, 4 weeks

Compound: C[C@@H]1C[C@H]2[C@@H]3CCC4=CC(=O)C=C[C@]4(C)[C@@]3(F)[C@@H](O)C[C@]2(C)[C@@]1(O)C(=O)CO [DEX, dexamethasone]
- BMD of the total femur ([1]; SC 0.022 mg/kg DEX once daily): 123 ± 7.92 mg/mL
- SMI change compared to the control (normal) group ([1]; SC 0.022 mg/kg DEX once daily): −21.1%
- Tb.Th change compared to the control (normal) group ([1]; SC 0.022 mg/kg DEX once daily): −7.98%
- serum CTx increase compared to the control (normal) group [2, 5]: 48.9%
- serum PINP reduction compared to the control (normal) group [2, 5]: 26.0%

Compound: CCCCCCCCCCCCO[C@@H]1O[C@H](CO)[C@@H](O[C@H]2O[C@H](CO)[C@@H](O)[C@H](O)[C@H]2O)[C@H](O)[C@H]1O [DM, n-dodecyl-β-D-maltoside]
- Particle size [3]: 7.43 nm
- Polydispersity index (PDI) [3]: 0.045
- Zeta potential [3]: −0.260 mV

Compound: CC[C@H](C)[C@H](NC(=O)[C@H](CCC(=O)O)NC(=O)[C@H](CO)NC(=O)[C@@H](NC(=O)[C@@H](N)CO)C(C)C)C(=O)N[C@@H](CCC(N)=O)C(=O)N[C@@H](CC(C)C)C(=O)N[C@@H](CCSC)C(=O)N[C@@H](Cc1cnc[nH]1)C(=O)N[C@@H](CC(N)=O)C(=O)N[C@@H](CC(C)C)C(=O)NCC(=O)N[C@@H](CCCCN)C(=O)N[C@@H](Cc1cnc[nH]1)C(=O)N[C@@H](CC(C)C)C(=O)N[C@@H](CC(N)=O)C(=O)N[C@@H](CO)C(=O)N[C@@H](CCSC)C(=O)N[C@@H](CCC(=O)O)C(=O)N[C@@H](CCCN=C(N)N)C(=O)N[C@H](C(=O)N[C@@H](CCC(=O)O)C(=O)N[C@@H](Cc1c[nH]c2ccccc12)C(=O)N[C@@H](CC(C)C)C(=O)N[C@@H](CCCN=C(N)N)C(=O)N[C@@H](CCCCN)C(=O)N[C@@H](CCCCN)C(=O)N[C@@H](CC(C)C)C(=O)N[C@@H](CCC(N)=O)C(=O)N[C@@H](CC(=O)O)C(=O)N[C@H](C(=O)N[C@@H](Cc1cnc[nH]1)C(=O)N[C@@H](CC(N)=O)C(=O)N[C@@H](Cc1ccccc1)C(=O)O)C(C)C)C(C)C [TRP, Human PTH (1-34) acetate]
- bioavailability ([4]; Oral, 1.6 mg/kg TRP, relative to SC 0.04 mg/kg): 0.559 ± 0.293%
- AUC(0-inf) ([4]; Oral, 1.6 mg/kg TRP): 0.296 ± 0.0189 ng·h/mL
- AUC(0-t) ([4]; Oral, 1.6 mg/kg TRP): 0.135 ± 0.0704 ng·h/mL
- Cmax ([4]; Oral, 1.6 mg/kg TRP): 0.155 ± 0.0572 ng/mL
- Tmax ([4]; Oral, 1.6 mg/kg TRP): 78 ± 16.2 min
- half-life ([4]; Oral, 1.6 mg/kg TRP): 43.2 ± 10.8 min
- bioavailability ([4]; SC, 0.04 mg/kg TRP (reference), read-out: Relative bioavailability): 100%
- AUC(0-inf) ([4]; SC, 0.04 mg/kg TRP): 0.752 ± 0.0269 ng·h/mL
- AUC(0-t) ([4]; SC, 0.04 mg/kg TRP): 0.601 ± 0.12 ng·h/mL
- Cmax ([4]; SC, 0.04 mg/kg TRP): 0.807 ± 0.135 ng/mL
- Tmax ([4]; SC, 0.04 mg/kg TRP): 30 min
- half-life ([4]; SC, 0.04 mg/kg TRP): 24 min
- trabecular bone microarchitecture, 3D micro-CT image of the femur ([1]; SC 0.02 or oral 0.4 and 0.8 mg/kg TRP, versus control (DEX) and TRP-Oral (0.4)): denser trabecular bone microarchitecture
- trabecular bone, H&E-stained histology of distal femora ([1]; SC 0.02 or oral 0.4 or 0.8 mg/kg TRP, versus control (DEX) and TRP-Oral (0.4)): increased structural integrity and denser trabecular bone microarchitecture
- BMD higher than the DEX group ([1]; SC 0.02 mg/kg TRP once daily): 29.4%
- BV/TV higher than the control (DEX) group ([1]; SC 0.02 mg/kg TRP once daily): 13.2%
- Tb. Sp lower than the control (DEX) group ([1]; SC 0.02 mg/kg TRP once daily): 17.4%
- Tb.N higher than the control (DEX) group ([1]; SC 0.02 mg/kg TRP once daily): 2.8%
- Tb.Th higher than the control (DEX) group ([1]; SC 0.02 mg/kg TRP once daily): 45.2%
- BMD higher than the control (DEX) group ([1]; oral 0.4 mg/kg TRP once daily): did not produce a significant improvement
- PINP higher compared to the control (DEX) group [2, 6]: 1.19 times
- serum osteocalcin level higher than TRP-oral (0.4) group [2, 6]: 9.68%
- serum osteocalcin level higher than control group (DEX) [2, 6]: 28.2%
- serum osteocalcin level higher than control group (normal) [2, 6]: 18.2%
- serum calcium levels, maximum increase compared to the control (normal) group ([2]; SC 0.02 mg/kg TRP, at 6 hours, day 28): 21.4%
- PINP secretion increase compared to DEX-treated mice only ([2]; oral 0.4 mg/kg TRP once daily, 4 weeks): not recovered
